Measured values taken from ChEMBL document CHEMBL1201862, “PubChem BioAssay data set” (2004).
Activity calls are given as the source filed them.

Tests used:
[1] = target: Keap1/Nrf2 (Homo sapiens, UniProt Q14145); test: disruptors of Keap1 binding to Nrf2 peptide – biochemical, fluorescence polarization, cherry-picked samples, dose response (AID 588683)
[2] = tested on: Candida albicans; test: resistant Candida growth with fluconazole co-treatment – CaCi-8 strain, Alamar Blue, dry powder, set 2, dose response (AID 488909); format: functional, organism-based
[3] = tested on: Candida albicans; test: fluconazole-resistant Candida strain growth inhibitors – CaCi-8 strain, dry powder, set 4, dose response (AID 488950); format: functional, organism-based
[4] = tested on: Candida albicans; test: C. albicans growth inhibition with fluconazole – CaCi-2 strain, Alamar Blue, dry powder, set 4, dose response (AID 488943); format: functional, organism-based
[5] = target: Opioid receptors; mu & delta (Homo sapiens, UniProt P41143+P35372); test: OPRM1-OPRD1 heterodimer agonist potency – cell-based, luminescence, dose response (AID 588407); format: functional
[6] = tested on: HEK293; test: optical interference in Abeta FP readout, dose response, artefact control for IDE activator project, biochemical, fluorescence polarization (AID 588442); format: functional, cell-based; conditions: Homo sapiens
[7] = tested on: INS1; test: INS-1E survival protection against cytokine death – cell-based, luminescence, retest, dose response (AID 449756); format: functional; conditions: Rattus norvegicus;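 note: cell death triggered by IL-1 beta plus TNF-alpha plus IFN-gamma mixture; protective hits raise ATP signal compared with cytokine alone wells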
[8] = tested on: HEK293; test: membrane integrity loss in HEK cells – cell-based, fluorescence, cytotoxicity control for IDE activator project, dose response (AID 588440); format: functional; conditions: Homo sapiens;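 note: cytotoxicity by LDH release measuring loss of membrane integrity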
[9] = target: T1, Replicative DNA helicase DnaB (Mycobacterium tuberculosis, UniProt P9WMR3); test: DnaB intein splicing inhibitors, dose response, biochemical, cell-free fluorescence (AID 449749); format: functional
T1 sequence (P9WMR3 whole entry): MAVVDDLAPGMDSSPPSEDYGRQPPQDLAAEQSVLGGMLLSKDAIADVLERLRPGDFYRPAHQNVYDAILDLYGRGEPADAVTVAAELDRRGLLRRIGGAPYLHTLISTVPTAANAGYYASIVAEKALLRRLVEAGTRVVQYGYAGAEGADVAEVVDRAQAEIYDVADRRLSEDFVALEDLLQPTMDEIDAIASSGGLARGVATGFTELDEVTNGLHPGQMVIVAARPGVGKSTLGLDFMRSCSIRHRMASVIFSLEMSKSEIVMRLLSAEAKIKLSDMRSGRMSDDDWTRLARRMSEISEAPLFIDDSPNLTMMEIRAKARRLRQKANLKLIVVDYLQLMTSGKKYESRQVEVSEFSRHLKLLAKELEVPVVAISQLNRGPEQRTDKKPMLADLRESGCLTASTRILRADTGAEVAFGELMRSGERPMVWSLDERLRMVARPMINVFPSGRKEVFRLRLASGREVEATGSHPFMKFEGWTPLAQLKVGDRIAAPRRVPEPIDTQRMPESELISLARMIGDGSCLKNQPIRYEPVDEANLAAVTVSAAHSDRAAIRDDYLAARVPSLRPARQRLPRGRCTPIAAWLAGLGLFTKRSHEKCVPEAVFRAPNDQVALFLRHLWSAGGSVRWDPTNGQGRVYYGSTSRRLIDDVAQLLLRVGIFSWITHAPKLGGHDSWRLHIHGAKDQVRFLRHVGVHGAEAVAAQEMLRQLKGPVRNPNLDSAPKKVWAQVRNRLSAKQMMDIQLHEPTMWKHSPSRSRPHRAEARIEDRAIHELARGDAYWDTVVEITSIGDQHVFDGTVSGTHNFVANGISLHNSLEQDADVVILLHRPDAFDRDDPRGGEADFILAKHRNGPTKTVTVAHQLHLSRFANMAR

[10] = target: T2, Protein RecA (Mycobacterium tuberculosis, UniProt P9WHJ3); test: Fluorescence Cell-Free Homogeneous Dose Retest to Identify Inhibitors of RecA-Intein Splicing Activity. [Related pubchem assays (depositor defined):AID2097, AID2223, AID489010, AID492950]; format: functional
T2 sequence (P9WHJ3 whole entry): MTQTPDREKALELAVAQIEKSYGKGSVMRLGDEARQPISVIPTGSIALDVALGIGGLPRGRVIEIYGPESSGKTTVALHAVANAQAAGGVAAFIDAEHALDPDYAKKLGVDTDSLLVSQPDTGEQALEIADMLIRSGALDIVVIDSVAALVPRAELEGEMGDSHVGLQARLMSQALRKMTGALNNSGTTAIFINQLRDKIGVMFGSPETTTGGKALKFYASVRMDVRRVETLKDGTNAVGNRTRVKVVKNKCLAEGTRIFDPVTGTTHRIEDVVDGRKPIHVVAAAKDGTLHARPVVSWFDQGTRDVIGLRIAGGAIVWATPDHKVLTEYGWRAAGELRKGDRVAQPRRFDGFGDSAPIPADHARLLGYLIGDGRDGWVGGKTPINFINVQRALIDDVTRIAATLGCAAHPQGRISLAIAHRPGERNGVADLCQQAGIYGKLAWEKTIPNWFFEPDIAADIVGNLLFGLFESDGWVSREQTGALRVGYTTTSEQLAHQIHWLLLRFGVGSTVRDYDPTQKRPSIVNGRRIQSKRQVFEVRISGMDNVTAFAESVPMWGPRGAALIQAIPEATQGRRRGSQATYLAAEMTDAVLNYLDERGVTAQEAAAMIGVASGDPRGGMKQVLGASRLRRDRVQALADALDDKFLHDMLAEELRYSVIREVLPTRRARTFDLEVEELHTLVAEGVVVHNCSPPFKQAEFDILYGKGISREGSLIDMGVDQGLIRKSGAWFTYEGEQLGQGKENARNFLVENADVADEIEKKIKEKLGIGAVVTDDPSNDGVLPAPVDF

[11] = target: Delta-type opioid receptor (Homo sapiens, UniProt P41143); test: Counterscreen for agonists of heterodimerization of the mu 1 (OPRM1) and delta 1 (OPRD1) opioid receptors: Luminescence-based cell-based high throughput dose response assay to identify agonists of OPRD1 homodimerization. [Related pubchem assays (depositor defined):AID504326, AID504355, AID504692, AID504904, AID504905]; format: functional
Sequence of Delta-type opioid receptor (P41143 whole entry): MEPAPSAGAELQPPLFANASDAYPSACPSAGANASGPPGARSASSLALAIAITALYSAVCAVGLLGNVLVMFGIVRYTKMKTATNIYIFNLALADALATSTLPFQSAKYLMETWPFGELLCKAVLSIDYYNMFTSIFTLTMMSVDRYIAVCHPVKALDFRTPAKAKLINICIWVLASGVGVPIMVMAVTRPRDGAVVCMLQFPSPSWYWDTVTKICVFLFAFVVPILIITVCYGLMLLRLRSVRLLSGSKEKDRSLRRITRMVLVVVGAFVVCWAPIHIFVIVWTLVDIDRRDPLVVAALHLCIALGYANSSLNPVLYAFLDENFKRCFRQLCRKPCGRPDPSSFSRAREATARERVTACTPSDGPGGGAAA

[12] = target: 5-hydroxytryptamine receptor 5A (Homo sapiens, UniProt P47898); test: Counterscreen for agonists of OPRM1-OPRD1 heterodimerization: luminescence-based cell-based high throughput dose response assay to identify agonists of 5-hydroxytryptamine (serotonin) 5A receptor (HTR5A). [Related pubchem assays (depositor defined):AID504326, AID504355, AID504692, AID504904, AID504905]; format: functional
Sequence of 5-hydroxytryptamine receptor 5A (P47898 whole entry): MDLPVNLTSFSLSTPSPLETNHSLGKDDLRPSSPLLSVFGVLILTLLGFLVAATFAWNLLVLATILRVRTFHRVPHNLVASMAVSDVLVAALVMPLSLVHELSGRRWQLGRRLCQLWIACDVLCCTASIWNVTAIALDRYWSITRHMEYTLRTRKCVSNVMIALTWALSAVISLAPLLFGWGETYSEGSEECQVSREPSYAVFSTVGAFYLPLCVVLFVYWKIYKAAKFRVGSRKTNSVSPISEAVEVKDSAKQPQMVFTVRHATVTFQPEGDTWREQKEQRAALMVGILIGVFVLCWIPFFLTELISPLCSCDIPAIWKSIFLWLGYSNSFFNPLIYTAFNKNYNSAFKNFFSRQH

[13] = target: Mu-type opioid receptor (Homo sapiens, UniProt P35372); test: Counterscreen for agonists of heterodimerization of the mu 1 (OPRM1) and delta 1 (OPRD1) opioid receptors: Luminescence-based cell-based high throughput dose response assay to identify agonists of OPRM1 homodimerization.; format: functional;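 note: U2OS cells expressing OPRM1 and beta-arrestin as split beta-galactosidase partners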
Sequence of Mu-type opioid receptor (P35372 whole entry): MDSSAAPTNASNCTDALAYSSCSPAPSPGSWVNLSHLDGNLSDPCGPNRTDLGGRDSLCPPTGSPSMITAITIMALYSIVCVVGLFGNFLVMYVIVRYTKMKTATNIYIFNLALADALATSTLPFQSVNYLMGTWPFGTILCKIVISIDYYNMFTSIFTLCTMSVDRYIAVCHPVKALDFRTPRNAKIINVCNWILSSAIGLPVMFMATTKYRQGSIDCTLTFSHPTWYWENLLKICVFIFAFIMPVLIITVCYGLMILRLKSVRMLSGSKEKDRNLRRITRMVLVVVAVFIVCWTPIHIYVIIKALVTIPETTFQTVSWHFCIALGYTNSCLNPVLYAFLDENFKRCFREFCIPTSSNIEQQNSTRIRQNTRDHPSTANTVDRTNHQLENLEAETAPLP

[14] = tested on: HeLa; test: ATP-based viability loss in HeLa cells – cell-based, CellTiter-Glo luminescence, cherry-pick samples, cytotoxicity control for MITF activator project, dose response (AID 540259); format: functional; conditions: Homo sapiens

Sequence of Keap1/Nrf2 (Q16236 whole entry): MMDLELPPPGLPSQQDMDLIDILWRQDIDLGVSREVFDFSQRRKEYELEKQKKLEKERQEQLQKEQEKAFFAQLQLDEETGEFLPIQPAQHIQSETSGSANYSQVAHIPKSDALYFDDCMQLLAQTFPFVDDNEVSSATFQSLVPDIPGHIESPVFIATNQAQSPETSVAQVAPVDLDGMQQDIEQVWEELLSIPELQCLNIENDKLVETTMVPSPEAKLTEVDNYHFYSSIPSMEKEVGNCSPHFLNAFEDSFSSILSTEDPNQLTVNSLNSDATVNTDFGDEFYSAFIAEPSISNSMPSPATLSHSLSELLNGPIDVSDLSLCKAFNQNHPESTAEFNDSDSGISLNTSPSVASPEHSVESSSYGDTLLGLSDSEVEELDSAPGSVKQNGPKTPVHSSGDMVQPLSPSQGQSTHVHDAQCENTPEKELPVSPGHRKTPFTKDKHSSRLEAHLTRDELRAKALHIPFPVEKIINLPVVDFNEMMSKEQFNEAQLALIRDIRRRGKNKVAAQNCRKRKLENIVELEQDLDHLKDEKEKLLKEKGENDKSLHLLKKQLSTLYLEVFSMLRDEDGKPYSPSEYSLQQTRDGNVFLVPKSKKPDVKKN
Sequence of Keap1/Nrf2 (Q14145 whole entry): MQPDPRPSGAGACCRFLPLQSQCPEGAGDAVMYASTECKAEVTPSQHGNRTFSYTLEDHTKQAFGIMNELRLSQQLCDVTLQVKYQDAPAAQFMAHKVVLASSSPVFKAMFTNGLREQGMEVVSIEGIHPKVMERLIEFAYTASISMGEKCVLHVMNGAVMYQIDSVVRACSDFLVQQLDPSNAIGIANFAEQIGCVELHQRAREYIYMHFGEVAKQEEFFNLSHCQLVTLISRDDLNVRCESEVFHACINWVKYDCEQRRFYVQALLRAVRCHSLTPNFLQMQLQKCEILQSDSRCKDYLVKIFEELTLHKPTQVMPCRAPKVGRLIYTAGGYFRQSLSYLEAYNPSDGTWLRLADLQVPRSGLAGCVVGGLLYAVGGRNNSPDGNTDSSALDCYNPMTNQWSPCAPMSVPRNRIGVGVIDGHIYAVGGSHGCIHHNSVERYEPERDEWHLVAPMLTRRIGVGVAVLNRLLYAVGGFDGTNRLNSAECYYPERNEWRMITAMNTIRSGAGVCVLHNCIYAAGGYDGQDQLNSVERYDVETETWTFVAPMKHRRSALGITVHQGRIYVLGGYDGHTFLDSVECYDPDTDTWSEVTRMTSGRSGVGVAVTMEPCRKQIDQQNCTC

Cc1cc[n+](-c2[n-]c(=O)sc2C=NNC(=S)Nc2ccccc2)cc1C
AC50 [1]: > 52 µM (inactive)

O=C(Nc1ccc(Cl)cc1)N1CCN(c2ccnc3cc(Cl)ccc23)CC1
AC50 [2]: 0.295 µM (active)
AC50 [3]: 1.56 µM (active)
AC50 [4]: 1.16 µM (active)

Clc1ccc(C(c2ccc(Cl)cc2)[n+]2ccn(CC(OCc3ccc(Cl)cc3Cl)c3ccc(Cl)cc3Cl)c2)cc1.[Cl-] (stereo not drawn) [CALMIDAZOLIUM CHLORIDE]
EC50 [5]: > 3.426 µM
EC50 [6]: > 54.7 µM (inactive)
AC50 [7]: 2.56 µM (active)
IC50 [8]: 2.01 µM (active)

CC(C)CC(=O)N1CCN(c2ccnc3cc(Cl)ccc23)CC1
AC50 [2]: 12.7 µM (active)
AC50 [3]: 6.04 µM (active)
AC50 [4]: 5.54 µM (active)

c1ccc(C2[C@H]3CN(Cc4cccnc4)[C@H](c4ccccc4)C34CC2(c2cccnc2)C4)cc1 (stereo partly drawn)
EC50 [5]: > 3.424 µM
AC50 [9]: 3.72 µM (active)
EC50 [10]: 16.7 µM (active)
EC50 [11]: 3.21 µM (active)
EC50 [12]: > 92.5 µM (inactive)
EC50 [13]: > 92.5 µM (inactive)

CCc1ccc(C(=O)NC2CCCCC2)s1
AC50 [14]: 87.6 µM (active)
